In patent publication US20050209289A1, “Method for vascular dysregulation” (priority 2004, published 2005):

Tested on: clinical patients
Assay: Clinical patient encounters treated with vascular dysregulation techniques (trigger elimination plus calcium channel blocker and/or antiemetic); case reports
Type: in vivo, human
Conditions: person
Protocol: At Step 36, a personal and family medical history of a patient is collected during a patient encounter. […] At Step 42, a list of environmental triggers for the one or more determined dysregulation pathways to be avoided is prepared for the patient. At Step 44, a list of medical triggers for the one or more determined dysregulation pathway to be avoided is prepared for the patient. At Step 46, the patient's current medication profile, if any, is adjusted for the one or more determined dysregulation pathways, thereby treating the medical condition via the one or more determined dysregulation pathways.
At Step 50, a test is conducted to determine whether a patient has a chronic medical condition and has one or more common symptoms based on a personal and medical history collected during a patient encounter. […] The vascular dysregulation techniques include eliminating environmental triggers, eliminating medical triggers and adjusting patient's current medication profile.

COc1ccc([C@@H]2Sc3ccccc3N(CCN(C)C)C(=O)[C@@H]2OC(C)=O)cc1 [diltiazem]
Cold toes and fingers, Patient E (cold toes and fingers, migraine headaches, off caffeine): obtained warm fingers and toes
Severe headaches and insomnia, Patient H (coffee and diet sodas eliminated, daily dose): severe headaches were eliminated and they are sleeping soundly
Singing voice (unexpected effect), Patient E (off caffeine, presumed secondary to decreased post-nasal drip and nasal congestion): significantly stronger singing voice
